Reference: patent publication US20200069691A1, “HETEROCYCLIC COMPOUNDS AS HIV PROTEASE INHIBITORS” (Merck Sharp & Dohme Corp., priority 2016, published 2020)

Target: T1, wild-type HIV-1 protease (Human immunodeficiency virus type 1 group M subtype B, UniProt P04585)
T1 construct: Escherichia coli expressed wild-type HIV-1 protease protein
Assay: Assay for Inhibition of Microbial Expressed HIV Protease (peptide substrate cleavage, LC-MS/MS readout)
Format: biochemical
Conditions: E. coli expressed wild-type HIV-1 protease, mean of at least two independent experiments, read-out: HIV Pr Enzyme HIV1 PR IC50
Protocol: Assay for Inhibition of Microbial Expressed HIV Protease
Inhibition of Escherichia coli expressed wild-type HIV-1 protease protein was carried out with a peptide substrate [Val-Ser-Gln-Asn-(βnaphtyl)Ala-Pro-Ile-Val]. The inhibitor compound was preincubated with HIV-1 protease enzyme in assay buffer (50 mM sodium acetate, pH 5.5, 100 mM NaCl, and 0.1% BSA) for 30 minutes at room temperature. Peptide substrate was added to 400 μM in a total volume of 20 μL containing […] HIV-1 protease (final) after which the reaction was incubated for 1 hour at 30° C. […] The extent of inhibition of the reaction was determined from the peak area of the products.
Data shown in the table reflects the mean of at least two independent experiments.

Row | Compound | IC50
1 | N=C1NC(c2ccc(F)cc2)(c2ccc(F)cc2)C(=O)N1Cc1cccc(C(=O)N2Cc3ccc(F)cc3C2)c1 [Compound 232, 3-{3-[(5-fluoro-1,3-dihydro-2H-isoindol-2-yl)carbonyl]benzyl}-5,5-bis(4-fluorophenyl)-2-iminoimidazolidin-4-one] | 13.5 nM
2 | N=C1N[C@](CCCC(F)(F)F)(c2ccc(F)cc2)C(=O)N1[C@@H]1CCCc2ccc(C(=O)N3Cc4nccnc4C3)cc21 [Compound 116, (5R)-3-[(1R)-7-(5,7-dihydro-6H-pyrrolo[3,4-b]pyrazin-6-ylcarbonyl)-1,2,3,4-tetrahydro-naphthalen-1-yl]-5-(4-fluoro-phenyl)-2-imino-5-(4,4,4-trifluorobutyl)imidazolidin-4-one] | 37.8 nM
3 | CC(C)CCC1(c2ccccc2)NC(=N)N(Cc2cccc(C(=O)N3Cc4nccnc4C3)c2)C1=O (centres unmarked) [Compound 208, 3-[3-(5,7-dihydro-6H-pyrrolo[3,4-b]pyrazin-6-ylcarbonyl)benzyl]-2-imino-5-(3-methylbutyl)-5-phenylimidazolidin-4-one] | 35.2 nM
4 | CC(C)CCC1(c2ccc(F)cc2)NC(=N)N(Cc2ccc(C(F)(F)F)c(C(=O)N3Cc4cncnc4C3)c2)C1=O (centres unmarked) [Compound 144, 3-[3-(5,7-dihydro-6H-pyrrolo[3,4-d]pyrimidin-6-ylcarbonyl)-4-(trifluoromethyl)benzyl]-5-(4-fluorophenyl)-2-imino-5-(3-methylbutyl)imidazolidin-4-one] | 3.73 nM
5 | N#Cc1ncc2c(n1)CN(C(=O)c1cc(CN3C(=N)N[C@](CCCC(F)(F)F)(c4ccc(F)cc4)C3=O)ccc1C(F)(F)F)C2 [Compound 58, 6-{[5-{[(4R)-4-(4-fluorophenyl)-2-imino-5-oxo-4-(4,4,4-trifluorobutyl)imidazolidin-1-yl]methyl}-2-(trifluoromethyl)-phenyl]carbonyl}-6,7-dihydro-5H-pyrrolo[3,4-d] pyrimidine-2-carbonitrile] | 6.43 nM
6 | N=C1N[C@](CCCC(F)(F)F)(c2ccc(F)cc2)C(=O)N1Cc1ccc(C(F)(F)F)c(C(=O)N2Cc3cnc(-c4cnn(CCN5CCOCC5)c4)nc3C2)c1 [Compound 33, (5R)-5-(4-fluorophenyl)-2-imino-3-[3-({2-[1-(2-morpholin-4-ylethyl)-1H-pyrazol-4-yl]-5,7-dihydro-6H-pyrrolo[3,4-d]pyrimidin-6-yl}carbonyl)-4-(trifluoromethyl)-benzyl]-5-(4,4,4-trifluorobutyl)-imidazolidin-4-one] | 3.26 nM
7 | CC(C)CCC1(c2ccc(F)cc2)NC(=N)N(Cc2ccc(C(F)(F)F)c(C(=O)N3Cc4nc(-c5ccccc5)oc4C3)c2)C1=O (centres unmarked) [Compound 158, 5-(4-fluorophenyl)-2-imino-5-(3-methylbutyl)-3-{3-[(2-phenyl-4,6-dihydro-5H-pyrrolo[3,4-d][1,3]oxazol-5-yl)carbonyl]-4-(trifluoromethyl)benzyl} imidazolidin-4-one] | 15.8 nM
8 | N=C1N[C@](CCCC(F)(F)F)(c2ccc(F)cc2)C(=O)N1Cc1ccc(C(F)(F)F)c(C(=O)N2Cc3cnc(-c4cnc(-c5ccc(F)cc5)o4)nc3C2)c1 [Compound 113, (5R)-5-(4-fluorophenyl)-3-[3-({2-[2-(4-fluorophenyl)-1,3-oxazol-5-yl]-5,7-dihydro-6H-pyrrolo[3,4-d]pyrimidin-6-yl}carbonyl)-4-(trifluoromethyl)benzyl]-2-imino-5-(4,4,4-trifluorobutyl)imidazolidin-4-one] | 31.9 nM
9 | CCCn1cc(-c2ncc3c(n2)CN(C(=O)c2cc(CN4C(=N)N[C@](CCCC(F)(F)F)(c5ccc(F)cc5)C4=O)ccc2C(F)(F)F)C3)cn1 [Compound 18, (5R)-5-(4-fluorophenyl)-2-imino-3-[3-{[2-(1-propyl-1H-pyrazol-4-yl)-5,7-dihydro-6H-pyrrolo[3,4-d]pyrimidin-6-yl]carbonyl}-4-(trifluoromethyl)benzyl]-5-(4,4,4-trifluorobutyl)imidazolidin-4-one] | 2 nM
10 | CC(C)(O)C(=O)N1CCN(C(=O)c2cc(CN3C(=N)N[C@](CCCC(F)(F)F)(c4ccc(F)cc4)C3=O)ccc2C(F)(F)F)CC1 [Compound 90, (5R)-5-(4-fluorophenyl)-3-[3-{[4-(2-hydroxy-2-methylpropanoyl)-piperazin-1-yl]carbonyl}-4-(trifluoromethyl)benzyl]-2-imino-5-(4,4,4-trifluorobutyl)imidazolidin-4-one] | 15.8 nM
11 | N=C1N[C@](CCC2CC2)(c2ccc(F)cc2)C(=O)N1[C@@H]1CCOc2ccc(C(=O)N3Cc4nccnc4C3)cc21 [Compound 107, (5R)-5-(2-cyclopropylethyl)-3-[(4R)-6-(5,7-dihydro-6H-pyrrolo-[3,4-b]pyrazin-6-ylcarbonyl)-3,4-dihydro-2H-chromen-4-yl]-5-(4-fluorophenyl)-2-iminoimidazolidin-4-one] | 25.9 nM
12 | CC(C)CCC1(c2ccccc2)NC(=N)N(Cc2cccc(C(=O)N3Cc4nccnc4C3)c2)C1=O (centres unmarked) [Compound 249, 3-[3-(5,7-dihydro-6H-pyrrolo[3,4-b]pyrazin-6-ylcarbonyl)benzyl]-2-imino-5-(3-methylbutyl)-5-phenylimidazolidin-4-one] | 18.1 nM
13 | N=C1NC(CCC2CC2)(c2cc(F)cc(F)c2)C(=O)N1Cc1ccc(C(F)(F)F)c(C(=O)N2CCn3c(nnc3C(F)(F)F)C2)c1 (centres unmarked) [Compound 91, 5-(2-cyclopropylethyl)-5-(3,5-difluorophenyl)-2-imino-3-[4-(trifluoromethyl)-3-{[3-(trifluoro-methyl)-5,6-dihydro[1,2,4]triazolo-[4,3-a]pyrazin-7(8H)-yl]carbonyl}-benzyl]imidazolidin-4-one] | 16.3 nM
14 | CC(C)CC[C@]1(c2ccccc2)NC(=N)N([C@H](C)c2ccc(C(F)(F)F)c(C(=O)N3Cc4nccnc4C3)c2)C1=O [Compound 141, (5R)-3-{(1R)-1-[3-(5,7-dihydro-6H-pyrrolo[3,4-b]pyrazin-6-ylcarbonyl)-4-(trifluoromethyl)phenyl]ethyl}-2-imino-5-(3-methylbutyl)-5-phenylimidazolidin-4-one] | 3.04 nM
15 | CC(C)CCC1(c2cccc(F)c2)NC(=N)N(Cc2cccc(C(=O)N3Cc4ccccc4C3)c2)C1=O (centres unmarked) [Compound 270, 3-[3-(1,3-dihydro-2H-isoindol-2-ylcarbonyl)benzyl]-5-(3-fluorophenyl)-2-imino-5-(3-methylbutyl)imidazolidin-4-one] | 27 nM
16 | CN1CCN(c2cncc(-c3ncc4c(n3)CN(C(=O)c3cc(CN5C(=N)N[C@](CCCC(F)(F)F)(c6ccc(F)cc6)C5=O)ccc3C(F)(F)F)C4)c2)CC1 [Compound 25, (5R)-5-(4-fluorophenyl)-2-imino-3-[3-({2-[5-(4-methylpiperazin-1-yl)pyridin-3-yl]-5,7-dihydro-6H-pyirolo[3,4-d]pyrimidin-6-yl}carbonyl)-4-(trifluoromethyl)benzyl]-5-(4,4,4-trifluorobutyl)imidazolidin-4-one] | 2.59 nM
17 | N=C1NC(c2ccc(F)cc2)(c2ccc(F)cc2)C(=O)N1Cc1ccc(C(F)(F)F)c(C(=O)N2Cc3nccnc3C2)c1 [Compound 139, 3-[3-(5,7-dihydro-6H-pyrrolo[3,4-b]pyrazin-6-ylcarbonyl)-4-(trifluoromethyl)benzyl]-5,5-bis(4-fluorophenyl)-2-iminoimidazolidin-4-one] | 2.93 nM
